Test results reported in publication PMC4674756, “NMR structure and function of Helicoverpa armigera sterol carrier protein-2, an important insecticidal target from the cotton bollworm” (Scientific Reports, 2015).

Tests used:
HaSCP-2 = HaSCP-2 (Helicoverpa armigera, UniProt K7NSY9); assay: biochemical
Experimental: In the presence of each SCPI with an increasing concentrations (0–10 μM), HaSCP-2 (with final concentration of 5 μM) was incubated with NBD-cholesterol (with final concentration of 1.25 μM) in 100 μl of 10 mM KHPO4 buffer (pH 7.5) at 25 °C. Mixture samples were added into 96-well plates and fluorescence intensity was measured on the microplate reader (GeminiXPS, Molecular Devices). Excitation was at 485 nm and emission was measured at 530 nm. The results are analyzed from three repeated experiments with standard deviations. All the data were processed using a single site competition, non-linear regression model in the GraphPad PRISM software version 4.0 (GraphPad). The 50% effective concentration (EC50) was obtained using the equation 2:

[1] = test system: Helicoverpa armigera larvae; assay: Cholesterol levels in fat body of larvae treated with SCP-2 inhibitors; assay type: in vivo; conditions: fat body dissected at 5th instar
Experimental: To investigate the effects of SCPI suppression on cholesterol absorption and accumulation in the fat body, in vivo experiments were conducted. The inhibitory effects of SCPIs on cholesterol uptake were tested at the early stages of 3rd and 4th instar larvae. H. armigera larvae were treated with SCPI-1 and mangostin. Because the fat body of insects is the main tissues of cholesterol storage, the fat bodies of the treated larvae were dissected at 5th instar and the concentration of cholesterol in the fat body was measured. […] Similarly, for the mangostin treatment group, there was a 2-fold decrease in the cholesterol levels (p = 0.05) (Fig. 9B 3rd) when the treatment started at 3rd instar stadium. […]
Figure 9 The levels of cholesterol in Helicoverpa armigera larvae treated by SCP-2 inhibitors. The cholesterol levels in the fat body of Helicoverpa armigera larvae which were treated with two inhibitors (AeSCPI-1 and mangostin) were determined. […] The concentration of cholesterol and total protein from each sample were measured. […] Larvae were treated and samples were measured in the same way as AeSCPI-1. […]
The H.armigera larvae were reared according to previous methods. […] Because the fat body of insects is the main tissue of cholesterol storage, the fat bodies of the treated larvae were dissected at 5th instar and the concentration of cholesterol in the fat body was measured. […]

full length HaSCP-2 = full length HaSCP-2 (Helicoverpa armigera, UniProt K7NSY9); assay: NBD-cholesterol binding assay, full length (deduced) HaSCP-2; conditions: NBD-cholesterol 0.25 μM, protein 25 nM to 15 μM, one site binding non-linear regression, R^2 = 0.99
Experimental: (§1) NBD-cholesterol binding assays were performed to investigate the biological function of HaSCP-2 in this study. Both the recombinant full length and trHaSCP-2 were examined for NBD-cholesterol binding (Kd). Glutathione S-transferase (GST) was used as a negative control as before. The final concentration of NBD-cholesterol was kept constant at 0.25 μM and the concentration of full length or truncated HaSCP-2 was tested in a range from 25 nM to 15 μM. The increasing concentration of full length or truncated HaSCP-2 led to the increase in the fluorescence emission value of NBD-cholesterol. […] The binding curves were analyzed by using the one site binding non-linear regression model adopted in the similar studies. […] It is quite likely that the N-terminal and C-terminal residues that were deleted may not be necessary for the ligand binding activity of HaSCP-2, as shown that no significant differences in binding affinity between the truncated HaSCP-2 and full length HaSCP-2.
(§2) HaSCP-2 binding activity to cholesterol was determined by using NBD-cholesterol binding assays. […] Then, the samples were applied to measure the fluorescence signals using a fluorescence microplate reader (GeminiXPS, Molecular Devices). Fluorescence was excited at 485 nm and the emission was measured at 530 nm. […]

[2] = biological target: truncated HaSCP-2 (trHaSCP-2) (Helicoverpa armigera, UniProt K7NSY9); assay: NBD-cholesterol binding assay, truncated (wild type) HaSCP-2; conditions: NBD-cholesterol 0.25 μM, protein 25 nM to 15 μM, one site binding non-linear regression, R^2 = 0.99
Experimental: as §1, §2

HaSCP-2 F53W = HaSCP-2 F53W (Helicoverpa armigera, UniProt K7NSY9, F443W); assay type: binding; conditions: mutant F53W; P vs WT 0.026
Description: (§3) In order to further confirm the key residues of HaSCP-2 that are involved in the ligand binding, based on the HaSCP-2 structure and docking simulation results we selected several predicted amino acid residues as shown in Table 3 (cholesterol and β-sitosterol) to perform single site mutation experiments to investigate the mechanism of ligand binding in HaSCP-2.
(§4) Single site amino acid mutations in the pGEX-KG/trHaSCP-2 were introduced using the QuikChange II Site-Directed Mutagenesis kit (Stratagene, La Jolla, CA). The Y51, F53, F89, I91, F110, I117 and Q131 sites of HaSCP-2 were selected to perform mutation.
(§5) HaSCP-2 binding activity to cholesterol was determined by using NBD-cholesterol binding assays. In truncation experiments, deduced HaSCP-2 and truncated HaSCP-2 were used for NBD-cholesterol binding assay; while as in mutation experiment, truncated HaSCP-2 (defined as wild type HaSCP-2) and mutated HaSCP-2 were assayed. HaSCP-2 was diluted in 10 mM KHPO4 buffer (pH 7.4) to a serial of varied concentrations […], respectively.

HaSCP-2 F110W = HaSCP-2 F110W (Helicoverpa armigera, UniProt K7NSY9, F500W); assay type: binding; conditions: mutant F110W; P vs WT 0.019
Description: as §3, §4, §5

HaSCP-2 Y51A = HaSCP-2 Y51A (Helicoverpa armigera, UniProt K7NSY9, Y441A); assay type: binding; conditions: mutant Y51A; P vs WT 0.023
Description: as §3, §4, §5

HaSCP-2 Q131A = HaSCP-2 Q131A (Helicoverpa armigera, UniProt K7NSY9, Q521A); assay type: binding; conditions: mutant Q131A; P vs WT 0.034
Description: as §3, §4, §5

HaSCP-2 F53A = HaSCP-2 F53A (Helicoverpa armigera, UniProt K7NSY9, F443A); assay type: binding; conditions: mutant F53A; P vs WT 0.031
Description: as §3, §4, §5

HaSCP-2 I117M = HaSCP-2 I117M (Helicoverpa armigera, UniProt K7NSY9, I507M); assay type: binding; conditions: mutant I117M; P vs WT 0.043
Description: as §3, §4, §5

HaSCP-2 F89A = HaSCP-2 F89A (Helicoverpa armigera, UniProt K7NSY9, F479A); assay type: binding; conditions: mutant F89A; P vs WT 0.038
Description: as §3, §4, §5

HaSCP-2, sequence (K7NSY9 entry or part of it): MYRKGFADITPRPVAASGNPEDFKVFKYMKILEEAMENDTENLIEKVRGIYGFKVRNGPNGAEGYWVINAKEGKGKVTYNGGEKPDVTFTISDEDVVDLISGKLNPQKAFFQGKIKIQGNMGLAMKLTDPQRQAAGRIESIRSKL
HaSCP-2 F110W, sequence (K7NSY9 entry or part of it F500W): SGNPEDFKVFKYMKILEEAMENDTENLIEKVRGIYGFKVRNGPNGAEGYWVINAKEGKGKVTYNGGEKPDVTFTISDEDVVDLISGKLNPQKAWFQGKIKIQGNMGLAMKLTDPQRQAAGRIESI
HaSCP-2 F53A, sequence (K7NSY9 entry or part of it F443A): as the sequence (K7NSY9 entry or part of it F500W) above, with F37A, W94F counted along it
full length HaSCP-2, sequence (K7NSY9 entry or part of it): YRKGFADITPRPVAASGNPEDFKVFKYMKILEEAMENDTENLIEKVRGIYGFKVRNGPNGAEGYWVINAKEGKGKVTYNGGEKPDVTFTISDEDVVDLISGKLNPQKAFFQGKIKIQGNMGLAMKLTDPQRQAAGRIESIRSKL
HaSCP-2 Y51A, sequence (K7NSY9 entry or part of it Y441A): as the sequence (K7NSY9 entry or part of it F500W) above, with Y35A, W94F counted along it
HaSCP-2 Q131A, sequence (K7NSY9 entry or part of it Q521A): as the sequence (K7NSY9 entry or part of it F500W) above, with W94F, Q115A counted along it
truncated HaSCP-2 (trHaSCP-2), sequence (K7NSY9 entry or part of it): as the sequence (K7NSY9 entry or part of it F500W) above, with W94F counted along it
HaSCP-2 F89A, sequence (K7NSY9 entry or part of it F479A): as the sequence (K7NSY9 entry or part of it F500W) above, with F73A, W94F counted along it
HaSCP-2 I117M, sequence (K7NSY9 entry or part of it I507M): as the sequence (K7NSY9 entry or part of it F500W) above, with W94F, I101M counted along it
HaSCP-2 F53W, sequence (K7NSY9 entry or part of it F443W): as the sequence (K7NSY9 entry or part of it F500W) above, with F37W, W94F counted along it

`COc1c(O)cc2oc3cc(O)c(CC=C(C)C)c(O)c3c(=O)c2c1CC=C(C)C` [α-mangostin, 1,3,6-trihydroxy-7-methoxy-2,8-bis(3-methylbut-2-enyl)-9H-xanthen-9-one] was tested, and the EC50 (HaSCP-2) was 730 nM and the “decrease in the cholesterol levels in the fat body” value ([1]; treatment started at 3rd instar stadium via diet, p = 0.05) was 2 fold.

With `C[C@H](CNc1ccc([N+](=O)[O-])c2nonc12)[C@H]1CC[C@H]2[C@@H]3CC=C4C[C@@H](O)CC[C@]4(C)[C@H]3CC[C@]12C` [NBD-cholesterol] the Kd (full length HaSCP-2) was 2800 nM, the Kd [2] was 2450 nM and the Kd (HaSCP-2 F53W) was 3410 nM. For the same molecule, the Kd (HaSCP-2 F110W) was 3240 nM, the Kd (HaSCP-2 Y51A) was 2650 nM and the Kd (HaSCP-2 Q131A) was 3770 nM. The Kd (HaSCP-2 F53A) was 3070 nM, the Kd (HaSCP-2 I117M) was 1800 nM and the Kd (HaSCP-2 F89A) was 3270 nM.

In the case of `Br.CC(=O)Nc1ccc(Nc2nc(-c3ccc(Cl)c(Cl)c3)cs2)cc1` [AeSCPI-1, N-(4-{[4-(3,4-dichlorophenyl)-1,3-thiazol-2-yl]amino}phenyl) acetamide hydrobromide], the EC50 (HaSCP-2) is reported as 760 nM and the “cholesterol levels in the fat body vs control group” value ([1]; larvae treated at 3rd instar stage via diet, p = 0.023) is reported as “significantly lower”.
